Reference: ChEMBL document CHEMBL1138145, “Enhanced FTase activity achieved via piperazine interaction with catalytic zinc” (Bioorg Med Chem Lett, 2006)

Tests used:
[1] = target: T1, Protein farnesyltransferase (Homo sapiens, UniProt P49354+P49356); assay: Inhibition of farnesyltransferase activity; type: protein-complex assay
[2] = target: T1, Protein farnesyltransferase; assay: Inhibition of farnesyltransferase activity at 0.2 uM; type: protein-complex assay
[3] = AUC in rat at 10 mg/kg, po; type: ADME, organism-based; parameters: dose 10 mg/kg, route oral; details: plasma
[4] = target: T1, Protein farnesyltransferase; assay: Inhibition of farnesyltransferase activity in COS7 cells transfected with Ras gene in soft agar proliferation; type: functional, cell-based, Chlorocebus aethiops, COS-7

SMILES	IC50 [1]	inhibition [2]	AUC [3]	IC50 [4]
CS(=O)(=O)N1CCC([C@H]2c3ccc(Cl)cc3C=C(N3CCNCC3)c3cccnc32)CC1	150 nM			
CS(=O)(=O)N1CCC([C@H]2c3ccc(Cl)cc3C(N3CCNCC3)=Cc3cccnc32)CC1		29%		
CS(=O)(=O)N1CCC([C@@H]2c3ccc(Cl)cc3C=C(N3CCNCC3)c3cccnc32)CC1	76 nM			
CS(=O)(=O)N1CCC([C@@H]2c3ccc(Cl)cc3C(N3CCNCC3)=Cc3cccnc32)CC1	7 nM		4 µM·h	72 nM
